Experimental data: PubChem BioAssay (NCI)
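At the GI50, growth is halved. TGI marks complete inhibition of growth.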

How the values were obtained:
Assay in all cases: growth of human tumour cells (NCI), 384-well format
DU-145 prostate = system: DU-145 prostate
MDA-MB-231 breast = system: MDA-MB-231 breast
HCC-2998 colon = system: HCC-2998 colon
T-47D breast = system: T-47D breast
HCT-116 colon = system: HCT-116 colon
RPMI-8226 leukemia = system: RPMI-8226 leukemia
SW-620 colon = system: SW-620 colon
MCF7 breast = system: MCF7 breast
MALME-3M melanoma = system: MALME-3M melanoma
OVCAR-3 ovarian = system: OVCAR-3 ovarian
SK-OV-3 ovarian = system: SK-OV-3 ovarian
SK-MEL-5 melanoma = system: SK-MEL-5 melanoma
HS 578T breast = system: HS 578T breast

What does the source list for Cc1cc([C@H](C)Nc2nccc(N3C(=O)OC[C@@H]3[C@H](C)F)n2)ncc1-c1ccnc(C(F)(F)F)c1?
GI50 (DU-145 prostate): 41.7 µM; TGI (DU-145 prostate): > 100 µM; GI50 (MDA-MB-231 breast): 46.4 µM; TGI (MDA-MB-231 breast): > 100 µM; GI50 (HCC-2998 colon): 24.6 µM; TGI (HCC-2998 colon): > 100 µM; GI50 (T-47D breast): 5.13 µM; TGI (T-47D breast): > 100 µM; GI50 (HCT-116 colon): 21 µM; TGI (HCT-116 colon): 96.7 µM; GI50 (RPMI-8226 leukemia): 7.2 µM; TGI (RPMI-8226 leukemia): 21.2 µM; GI50 (SW-620 colon): 61 µM; TGI (SW-620 colon): > 100 µM; GI50 (MCF7 breast): 25.8 µM; TGI (MCF7 breast): > 100 µM; GI50 (MALME-3M melanoma): 28.3 µM; TGI (MALME-3M melanoma): > 100 µM; GI50 (OVCAR-3 ovarian): 22.2 µM; TGI (OVCAR-3 ovarian): 72.3 µM; GI50 (SK-OV-3 ovarian): 41.7 µM; TGI (SK-OV-3 ovarian): > 100 µM; GI50 (SK-MEL-5 melanoma): 10.2 µM; TGI (SK-MEL-5 melanoma): 25.4 µM; GI50 (HS 578T breast): 16.1 µM; TGI (HS 578T breast): > 100 µM
